# Reference: patent US20230160890A1, “COMPOSITIONS AND METHODS FOR DIAGNOSING NARCOLEPSY” (The Board of Trustees of the Leland Stanford Junior …, priority 2018, published 2023)
# Entries after “also recorded” stand apart in the source; their conditions may differ. Ends that are not written are not given here. * marks the point of attachment. Biotin = O=C1N[C@H]2[C@H](CS[C@H]2CCCCC(=O)*)N1
# B1: Hcrt1-15 peptide (…) (peptide)
# peptide: MNLPSTKVSWAAVTL
# B2: T1N-irrelevant TCR isolated from a CD8+ T cell (TCR)
# alpha TRAV25 TRAJ42 CDR3: CAGTYGGSQGNLIF
# beta TRBV19 TRBJ2-2 CDR3: CASSLRSTGELFF
# B3: TCR26 (TCR)
# alpha TRAV9-2 TRAJ5 CDR3: CALSGKDTGRRALTF
# beta TRBV25-1 TRBJ2-1 CDR3: CASSASPNEQFF
# Key:
# [1] = test system: CD4+ T cells from T1N donors; experiment: In vitro culturing of CD4+ T cells with peptide-loaded T2DQ6 APCs, then tetramer staining; format: cell-based, human; conditions: for Frequencies of tetramer+ cells after in vitro stimulation with the corresponding peptide: stained with the tetramer of the corresponding peptide
# From the text: To test for the presence of DQ6-HCRTpeptide tetramer^+/CD4^+ T cells, a peptide-loaded antigen presenting cell (APC) line T2DQ6 (fixed to limit APC proliferation) was co-cultured with T cells for DQ6-restricted antigen stimulation. T2DQ6 was constructed by stable transfection of DQ6 (DQA1*01:02/DQB1*06:02) into T2, a class II deficient TxB hybrid cell^44. T2DQ6 cells were maintained in IMDM, GlutaMAX supplemented media (Thermo Fisher Scientific) with 10% HI FBS, 1% penicillin/streptomycin (P/S) and 1 mg/ml G418 (to maintain selective pressure on DQ6 transfectants). To load antigen, T2DQ6 cells were pulsed with peptides (i.e., EBV486-500, HCRT56-69, HCRT87-100, synthesized by Genscript) at 1 μM final concentration and incubated for 6 hours at 37° C. After peptide loading, 10 million T2DQ6 cells were washed with phosphate buffered saline (PBS) and then fixed by incubating with 0.025% glutaraldehyde in 2 ml PBS at RT for 30 seconds. After the addition of another 2 ml PBS, the cells were incubated for another 10 minutes at RT. Fixed T2DQ6 was washed twice with PBS and once with complete RPMI (RPMI 1640 medium supplemented with 10% HI human AB serum, 2 mM glutamine and 1% PS) before mixing with CD4^+ T cells. Human PBMCs frozen in NUNC tubes were thawed quickly at 37° C. and added slowly to 10 ml warm complete RPMI. PBMCs were pelleted and resuspended in cold buffer for CD4^+ T cell isolation. Cells were isolated from the PBMCs by negative selection, using the CD4^+ cell isolation kit, according to the manufacturer's instructions (Miltenyi Biotec). Isolated CD4^+ T cells were resuspended at 1×10^6 cells/ml in warm complete RPMI and rested for at least 1 hour before mixing with fixed T2DQ6 cells that were also resuspended at 1×10^6 cells/ml in warm complete RPMI. A mixture of 1:1 volume ratio of CD4^+ T cells and T2DQ6 cells in the presence of recombinant human IL-7 at final concentration of 2.5 ng/ml was aliquoted onto a 96-well plate and incubated at 37° C. for 6 days. On day 6 and day 9, 100 μl of the spent medium was removed from each well and replaced with fresh complete RPMI containing recombinant IL-7 at 2.5 ng/ml and IL-2 at 40 U/ml final concentrations. On day 12, a second round of antigen stimulation was performed similarly, using fixed T2DQ6 cells loaded with the corresponding peptides.
# Sufficient cells from the co-culture were collected, washed with complete RPMI, and resuspended in 5 ml complete RPMI at RT prior to Ficoll gradient separation. Cells above the Ficoll media were washed and resuspended at 10×10^6 cells/ml in complete RPMI for blocking. […]
# [2] = target: T1, soluble DQ6 (DQA1*01:02/DQB1*06:02) (Homo sapiens, UniProt P01909+P01920, A157G/A45G/C70R/E118A/E183D/E77G/F83G/G63E/H151Q/H199R/H252R/H253Q/I129T/I235V/I88M/INS77G/K197Q/L117V/L119F/L178F/L71W/L74F/L85Q/L91A/L98M/N214S/P87R/Q116E/Q76K/R102G/R240Q/R75S/R78G/S102Y/S185I/S41F/S97I/T121G/T122I/T172A/T86R/V229M/V68A/V73E/Y34C/Y41F/Y58L); experiment: Peptide competition assay (inhibition of DQ6 binding of biotinylated EBV486-500)
# T1 construct: 3C protease cleavage site (C); leucine zipper-Fos (C); cut by thrombin before the assay (N, cleaved yes); leucine zipper-Jun (C); made in house; host or cells: Drosophila Schneider 2 (S2) insect cells
# From the text: The ability of a peptide to inhibit the interaction of DQ6 and a reference binding peptide at steady state was used to estimate the relative DQ6 binding capacity of test peptides. We used biotinylated EBV486-500 (aa: biotin-[…] (SEQ ID NO:45), synthesized by Genscript), a DQ6-binding peptide (epitope underlined) derived from Epstein-Barr virus nuclear antigen^25, as our reference peptide. Non-biotinylated test peptides included thirty 15-mer overlapping peptides derived from prepo-HCRT (Table 1, by Genscript) and the positive control peptide EBV486-500. The DQ6-CLIP87-101 construct contains a thrombin cleavage site in between CLIP87-101 and […]. To cleave the covalent linker and enable replacement of CLIP87-101 by high affinity DQ6 binders, soluble DQ6-CLIP87-101 at a concentration of 3 μM was incubated with 0.002 U/μl thrombin enzyme (Novagen, EMD Millipore) for 2 h at room temperature (RT) prior to peptide loading experiments. To test DQ6 binding capacity, a non-biotinylated peptide at 40 μM was mixed with 1 μM biotinylated EBV486-500 and incubated with 25 nM thrombin-cleaved DQ6-CLIP87-101. 100 nM soluble DM was added as a catalyst to increase the peptide exchange efficiency^44. […] Time resolved fluorescence representing DQ6-associated biotinylated EBV486-500 captured by SPV-L3 in each well was then quantified using the DELFIA Eu-N1 Streptavidin System (PerkinElmer).
# [3] = test system: TCR27 transfectants of J76-NFATRE-luc cells; experiment: T cell activation assay using a luciferase reporter, TCR27 transfectants with K562-DQ6 APCs; format: cell-based, human; parameters: dose or concentration left out as unconfirmed; conditions: DQ6-restricted presentation by K562-DQ6, 1 day
# From the text: To encode the entire α/β chains of a candidate TCR, the nucleotide sequences for CDR3a and CDR3P were incorporated in frame with the corresponding V(D)J genes (IMGT/V-QUEST^37). TCRα/β genes were then synthesized and cloned into a plasmid pEF1α-TCRA_2A_TCRB_IRES-AcGFP1 (by GenScript). Each reconstructed plasmid uses a mammalian promoter, EF1a to direct co-expression of α and β chains of one candidate TCR. TCRA and TCRB are separated by the 2A self-cleaving peptide sequence. For selection purposes, the plasmid also encodes the green fluorescence protein (GFP) and neomycin resistance gene, with expression driven by separate promoters. TCR-encoding plasmids were then transfected into the TCRα/β deficient Jurkat cell line (J76-NFATRE-luc)^20 by nucleofection following the Amaxa Optimized protocol (Lonza). Transfectants were selected by G418 at a concentration of 1 mg/ml and recovered after 3-4 weeks of culturing in the RPMI medium supplemented with 10% HI FBS, 2 mM glutamine, and 1% PS. To avoid the heterogeneity in TCR expression observed in a polyclonal cell line, TCRαβ^+/GFP^+/CD3^+ cell transfectants were individually sorted by single cell FACS, to expand clonal cell lines originating from single cell transfectants. These clonal lines were then co-stained with PE anti-TCRα/β Abs (BD Biosciences) and APC DQ6-HCRT tetramers to confirm the expression of TCRs and validate their binding to tetramers using flow cytometric analysis.
# The TCR transfectants of J76-NFATRE-luc cells expresses the NFAT-RE (response element)-luciferase reporter gene allowing the conversion of T cell activation signaling to luciferase activity^20. […] The co-culture was incubated with various stimuli at 37° C. for 1 day before quantification of the luciferase activity. […] The mixture was then transferred to a flat-bottom white 96-well plate (Costar) for a measurement of chemiluminescence using a plate reader.
# [4] = target: soluble HLA-DQ6 (DQA1*01:02/DQB1*06:02), thrombin-cleaved DQ6-CLIP87-101 (human); experiment: competition: 40 µM test peptide against 1 µM biotinylated EBV486-500 on 25 nM soluble DQ6 with 100 nM HLA-DM, SPV-L3 capture, DELFIA
# [5] = target: T2, prepro-HCRT (hypocretin precursor) peptide on HLA-DQA1*01:02 / HLA-DQB1*06:02 (human); experiment: activation reporter or marker
# T2 peptide: ALLSSGAAAQPLP
# [6] = target: T3, prepro-HCRT (hypocretin precursor; C-terminus of HCRT2) peptide on HLA-DQA1*01:02 / HLA-DQB1*06:02 (human); experiment: multimer staining
# T3 peptide: SGNHAAGILTMGRR
# [7] = target: T4, prepro-HCRT (hypocretin precursor) peptide on HLA-DQA1*01:02 / HLA-DQB1*06:02 (human); experiment: multimer staining
# T4 peptide: MNLPSTKVSWAAV
molecule,measurement,setting,value
AGNHAAGILTLGKR [HCRT56-69],Frequencies of tetramer+ cells after in vitro stimulation with the corresponding peptide,[1],significantly increased
ALLSSGAAAQPLPDC [HCRT25-39],DQ6 binder class,"[2]; competition assay, FIG. 2A",strong binder
"EBV486-500: a DQ6-binding peptide derived from Epstein-Barr virus nuclear antigen, reference and positive control peptide (Biotin-GGGRALLARSHVERTTDE) [reference compound]",Frequencies of tetramer+ cells after in vitro stimulation with the corresponding peptide,[1],time dependent enrichment
MNLPSTKVSWAAV [HCRT1-13],TCR-mediated signaling (luciferase activity),[3],failure of TCR27-mediated signaling
MNLPSTKVSWAAVTL [HCRT1-15],% Competition (inhibition of the indicator EBV peptide binding to DQ6),"[2]; test peptide 40 μM, 1 μM biotinylated EBV486-500, 25 nM DQ6, 100 nM DM, pH 4.6, 37° C., 20 hours",> 75%
SGNHAAGILTM-NH2 [HCRT87-97-NH2],TCR-mediated signaling (luciferase activity),[3],significant signaling response; also recorded: triggered stronger signaling
SGNHAAGILTMGRR [HCRT87-100],TCR-mediated signaling (luciferase activity),[3],able to trigger TCR-mediated activation signaling
same,Enrichment of DQ6-HCRT56-69 tetramer+ cells in peptide-stimulated culture,"[1]; stained with the DQ6-HCRT56-69 tetramer, some T1N donors",enrichment
same,Frequencies of tetramer+ cells after in vitro stimulation with the corresponding peptide,[1],significantly increased
B1,% competition,[4],> 75%
B2,binding result,[5],no recognition
same,binding result,[6],no recognition
same,binding result,[7],no recognition
B3,binding result,[5],no recognition
